Data published in the NIST ThermoML archive (doi:10.1021/je0302304).

Test: refractive index (Na D-line) (dimensionless); xn = mol fraction of the nth substance listed
Details: 101.32 kPa, Liquid, Standard Abbe refractometry

COCCOCCOCCOC [2,5,8,11-tetraoxadodecane] + CCO
refractive index
Details	288.15 K	298.15 K	308.15 K	318.15 K
x1 = 0.0045	1.3641	1.36	1.3559	1.3517
x1 = 0.0085	1.3648	1.3608	1.3567	1.3525
x1 = 0.0125	1.3656	1.3616	1.3575	1.3533
x1 = 0.0165	1.3664	1.3624	1.3583	1.3541
x1 = 0.0205	1.3672	1.3632	1.359	1.3548
x1 = 0.0305	1.3691	1.365	1.3609	1.3567
x1 = 0.05	1.3724	1.3684	1.3644	1.3602
x1 = 0.1	1.3799	1.376	1.372	1.3679
x1 = 0.15	1.3862	1.3823	1.3782	1.3741
x1 = 0.2	1.3915	1.3875	1.3834	1.3794
x1 = 0.25	1.396	1.3919	1.3879	1.3839
x1 = 0.3	1.3998	1.3958	1.3917	1.3877
x1 = 0.35	1.4032	1.3991	1.395	1.391
x1 = 0.4	1.4061	1.402	1.3979	1.3939
x1 = 0.4499	1.4087	1.4046	1.4005	1.3965
x1 = 0.5	1.411	1.4069	1.4028	1.3988
x1 = 0.55	1.4131	1.409	1.4049	1.4008
x1 = 0.6	1.4149	1.4108	1.4067	1.4026
x1 = 0.65	1.4166	1.4125	1.4084	1.4043
x1 = 0.7	1.4181	1.414	1.4099	1.4058
x1 = 0.75	1.4195	1.4154	1.4113	1.4072
x1 = 0.7999	1.4208	1.4167	1.4126	1.4084
x1 = 0.8499	1.422	1.4179	1.4137	1.4096
x1 = 0.8998	1.4231	1.4189	1.4148	1.4106
x1 = 0.9498	1.4241	1.4199	1.4158	1.4116
x1 = 1	1.425	1.4209	1.4167	1.4125

COCCOCCOCCOCCOC [2,5,8,11,14-pentaoxapentadecane] + CCO
refractive index
Details	288.15 K	298.15 K	308.15 K	318.15 K
x1 = 0.0045	1.3644	1.3604	1.3564	1.3522
x1 = 0.0085	1.3656	1.3615	1.3575	1.3533
x1 = 0.0125	1.3667	1.3627	1.3586	1.3545
x1 = 0.0165	1.3678	1.3638	1.3598	1.3556
x1 = 0.0205	1.3689	1.3649	1.3608	1.3567
x1 = 0.0305	1.3714	1.3674	1.3634	1.3593
x1 = 0.05	1.376	1.372	1.368	1.3641
x1 = 0.1	1.3858	1.3819	1.3779	1.3741
x1 = 0.15	1.3936	1.3897	1.3857	1.3818
x1 = 0.2	1.3999	1.396	1.392	1.3881
x1 = 0.25	1.405	1.4011	1.3971	1.3931
x1 = 0.3	1.4093	1.4053	1.4013	1.3973
x1 = 0.35	1.4129	1.4089	1.4049	1.4009
x1 = 0.4	1.4159	1.412	1.408	1.404
x1 = 0.45	1.4186	1.4146	1.4106	1.4067
x1 = 0.5	1.4209	1.417	1.413	1.409
x1 = 0.55	1.423	1.419	1.415	1.411
x1 = 0.6	1.4248	1.4208	1.4168	1.4128
x1 = 0.6499	1.4264	1.4225	1.4184	1.4144
x1 = 0.7	1.4279	1.4239	1.4199	1.4159
x1 = 0.7498	1.4292	1.4252	1.4212	1.4172
x1 = 0.7999	1.4304	1.4264	1.4224	1.4184
x1 = 0.8499	1.4315	1.4275	1.4234	1.4194
x1 = 0.8997	1.4326	1.4285	1.4244	1.4204
x1 = 0.9496	1.4335	1.4294	1.4253	1.4213
x1 = 1	1.4344	1.4303	1.4262	1.4221

COCCOC [1,2-dimethoxyethane] + CCO
refractive index
Details	288.15 K	298.15 K	308.15 K	318.15 K
x1 = 0.0045	1.3633	1.3592	1.3552	1.351
x1 = 0.0086	1.3634	1.3593	1.3553	1.3511
x1 = 0.0125	1.3635	1.3594	1.3554	1.3512
x1 = 0.0165	1.3636	1.3596	1.3555	1.3513
x1 = 0.0205	1.3638	1.3597	1.3557	1.3515
x1 = 0.0305	1.3642	1.3601	1.356	1.3518
x1 = 0.05	1.3649	1.3608	1.3566	1.3524
x1 = 0.1	1.3666	1.3624	1.3582	1.3539
x1 = 0.15	1.3681	1.3639	1.3596	1.3552
x1 = 0.2	1.3695	1.3652	1.3609	1.3565
x1 = 0.25	1.3709	1.3664	1.3621	1.3576
x1 = 0.3	1.3721	1.3676	1.3631	1.3586
x1 = 0.35	1.3732	1.3686	1.3641	1.3596
x1 = 0.4	1.3742	1.3696	1.3651	1.3605
x1 = 0.45	1.3751	1.3705	1.3659	1.3613
x1 = 0.5	1.376	1.3714	1.3667	1.362
x1 = 0.55	1.3768	1.3722	1.3675	1.3628
x1 = 0.6	1.3776	1.3729	1.3682	1.3634
x1 = 0.6499	1.3783	1.3736	1.3688	1.364
x1 = 0.7	1.379	1.3742	1.3694	1.3646
x1 = 0.7499	1.3796	1.3748	1.37	1.3652
x1 = 0.7999	1.3802	1.3754	1.3705	1.3657
x1 = 0.85	1.3808	1.3759	1.371	1.3661
x1 = 0.9	1.3813	1.3764	1.3715	1.3666
x1 = 0.9499	1.3818	1.3768	1.3719	1.3669
x1 = 1	1.3824	1.3772	1.3722	1.3672

COCCOCCOC [2,5,8-trioxanonane] + CCO
refractive index
Details	288.15 K	298.15 K	308.15 K	318.15 K
x1 = 0.0045	1.3636	1.3596	1.3555	1.3514
x1 = 0.0085	1.3641	1.3601	1.356	1.3518
x1 = 0.0125	1.3645	1.3605	1.3565	1.3523
x1 = 0.0165	1.365	1.361	1.3569	1.3528
x1 = 0.0205	1.3655	1.3615	1.3574	1.3532
x1 = 0.0305	1.3666	1.3626	1.3585	1.3543
x1 = 0.05	1.3687	1.3647	1.3606	1.3564
x1 = 0.1	1.3737	1.3696	1.3654	1.3612
x1 = 0.15	1.378	1.3739	1.3697	1.3655
x1 = 0.2	1.3817	1.3776	1.3734	1.3692
x1 = 0.25	1.3851	1.381	1.3767	1.3725
x1 = 0.3	1.3881	1.3839	1.3797	1.3754
x1 = 0.35	1.3907	1.3866	1.3823	1.378
x1 = 0.4	1.3931	1.3889	1.3846	1.3803
x1 = 0.45	1.3953	1.3911	1.3867	1.3824
x1 = 0.4999	1.3973	1.3931	1.3887	1.3843
x1 = 0.55	1.399	1.3948	1.3904	1.3861
x1 = 0.5999	1.4007	1.3965	1.392	1.3877
x1 = 0.65	1.4022	1.398	1.3935	1.3892
x1 = 0.6999	1.4036	1.3993	1.3949	1.3905
x1 = 0.7499	1.4049	1.4006	1.3961	1.3917
x1 = 0.7999	1.406	1.4018	1.3973	1.3929
x1 = 0.8499	1.4072	1.4029	1.3984	1.394
x1 = 0.8998	1.4082	1.4039	1.3994	1.395
x1 = 0.9498	1.4092	1.4049	1.4003	1.3959
x1 = 1	1.4101	1.4058	1.4012	1.3968
